The target in one test is T1, SUMO E1 (Homo sapiens, UniProt Q9UBT2).
T1 sequence (Q9UBT2 1-640): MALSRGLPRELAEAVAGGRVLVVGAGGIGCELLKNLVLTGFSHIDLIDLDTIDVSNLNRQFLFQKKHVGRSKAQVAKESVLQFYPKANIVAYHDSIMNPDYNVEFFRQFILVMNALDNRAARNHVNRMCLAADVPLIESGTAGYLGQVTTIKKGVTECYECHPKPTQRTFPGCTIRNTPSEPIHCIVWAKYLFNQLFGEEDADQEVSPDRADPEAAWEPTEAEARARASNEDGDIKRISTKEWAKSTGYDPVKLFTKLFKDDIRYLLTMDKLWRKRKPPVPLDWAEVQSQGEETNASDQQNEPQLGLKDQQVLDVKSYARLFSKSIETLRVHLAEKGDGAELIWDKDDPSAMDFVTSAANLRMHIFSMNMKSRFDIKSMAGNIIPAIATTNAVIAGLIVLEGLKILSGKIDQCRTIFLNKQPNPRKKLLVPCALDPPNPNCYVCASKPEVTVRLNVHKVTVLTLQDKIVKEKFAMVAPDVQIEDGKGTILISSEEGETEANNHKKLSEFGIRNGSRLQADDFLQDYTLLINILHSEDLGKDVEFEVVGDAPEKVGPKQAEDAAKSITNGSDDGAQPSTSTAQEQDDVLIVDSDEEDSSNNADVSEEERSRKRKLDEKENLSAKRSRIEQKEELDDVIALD
T1 sequence (Q9UBE0 1-346 partner): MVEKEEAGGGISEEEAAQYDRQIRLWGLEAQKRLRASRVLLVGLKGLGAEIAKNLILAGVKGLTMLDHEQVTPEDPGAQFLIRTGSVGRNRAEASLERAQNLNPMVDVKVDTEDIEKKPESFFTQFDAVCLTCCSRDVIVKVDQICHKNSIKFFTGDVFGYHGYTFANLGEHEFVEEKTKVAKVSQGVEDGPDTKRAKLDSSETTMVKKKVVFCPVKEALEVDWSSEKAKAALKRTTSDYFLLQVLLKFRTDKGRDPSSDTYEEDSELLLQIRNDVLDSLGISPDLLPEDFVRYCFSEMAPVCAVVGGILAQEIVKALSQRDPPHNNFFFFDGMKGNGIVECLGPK
In words: SUMO E1 inhibition: UBC9-SUMO1 conjugation by SDS gel electrophoresis. It is filed as biochemical. The settings on record: read-out: SUMO E1 percent inhibition of adduct formation; for inhibition at 25 µM: 25 uM compound; for inhibition at 10 µM: 10 uM compound; for inhibition at 1 µM: 1 uM compound; for inhibition at 27 µM: 27 uM compound; for inhibition at 9 µM: 9 uM compound, 15 min preincubation. As for the experimental part:
(§1) Compounds are evaluated for their inhibitory effect on activating enzymes (E1) of ubiquitin, SUMO, Nedd8, Urm1, ISG15 or Atg7 using previously reported methods and protocols. One example is in: Allosteric inhibition of ubiquitin-like modifications by a class of inhibitor of SUMO-activating enzyme. Cell Chemical Biology, 26, 1-11, 2019. PMID: 28051857.
(§2) Compounds are tested in the following manner. The compound and SUMO E1 are incubated for a predetermined amount of time. UBC9, SUMO1, and ATP are added to the E1-compound mixture and incubated at 37° C. The reaction is quenched with Laemmli Buffer. The UBC9-SUMO1 conjugation is analyzed via SDS gel electrophoresis. The percent inhibition is measured by the intensity of the UBC9-SUMO1 band compared to the no compound control. Activities are listed as compound concentration (uM), preincubation time of E1 with compound (min), and percent inhibition of adduct formation (%). […]

A further test deals with T2, Atg7 (Homo sapiens, UniProt O95352).
T2 sequence (O95352 1-703): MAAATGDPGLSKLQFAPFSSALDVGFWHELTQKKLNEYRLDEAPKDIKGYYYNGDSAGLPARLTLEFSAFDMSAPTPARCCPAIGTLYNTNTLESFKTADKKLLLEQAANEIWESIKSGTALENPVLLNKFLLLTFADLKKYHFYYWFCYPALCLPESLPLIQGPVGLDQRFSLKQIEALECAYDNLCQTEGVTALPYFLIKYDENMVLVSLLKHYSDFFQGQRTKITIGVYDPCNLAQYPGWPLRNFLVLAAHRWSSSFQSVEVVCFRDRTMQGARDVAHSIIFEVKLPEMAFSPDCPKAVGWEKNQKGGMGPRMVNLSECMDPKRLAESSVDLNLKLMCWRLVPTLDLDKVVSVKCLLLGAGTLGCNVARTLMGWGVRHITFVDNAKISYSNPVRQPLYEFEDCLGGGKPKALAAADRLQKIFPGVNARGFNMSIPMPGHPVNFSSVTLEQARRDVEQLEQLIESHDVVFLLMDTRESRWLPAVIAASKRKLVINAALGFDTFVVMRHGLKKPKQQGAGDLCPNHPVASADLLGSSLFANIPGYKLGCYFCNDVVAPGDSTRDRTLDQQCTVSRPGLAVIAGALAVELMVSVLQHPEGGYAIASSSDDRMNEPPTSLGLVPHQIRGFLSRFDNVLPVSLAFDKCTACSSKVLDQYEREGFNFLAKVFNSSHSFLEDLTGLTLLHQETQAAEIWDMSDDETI
In words: Atg7 activating enzyme (E1) inhibition. It is filed as biochemical. The settings on record: 25 uM compound, 60 min preincubation; read-out: Atg7 percent inhibition of adduct formation. As for the experimental part:
as §1, §2

The mark [1] stands for this setting: 55 min preincubation of E1 with compound.

Like-named read-outs stand apart in the source and are kept apart here.

The inhibition is how much of the control response was suppressed.

As for `C=CC(=O)N1CCc2ccccc2[C@@H]1c1ccccc1` (stereo in doubt) [Compound 10], the inhibition at 25 µM on SUMO E1 (60 min preincubation) and on Atg7 was below 1% throughout.
As to `C=CC(=O)N1Cc2ccccc2[C@@H](c2ccccc2)C1` (stereo in doubt) [Compound 11], on SUMO E1 (60 min preincubation), the inhibition at 10 µM stood at 90%. The inhibition at 25 µM on Atg7 was below 1%.
On to `C=CC(=O)N1CCc2c(Br)cccc2C1` [Compound 1], for which the inhibition at 25 µM at SUMO E1 (setting [1]) is 50%; at Atg7, below 1%.
Take `C=CC(=O)N1CCc2ccc(Br)cc2C1` [Compound 2]: the inhibition at 25 µM at SUMO E1 (setting [1]) is 50%; at Atg7 it was below 1%.
`C=CC(=O)N1CCc2cc(Br)ccc2C1` [Compound 3]: the results for the inhibition at 25 µM at SUMO E1 (60 min preincubation) and at Atg7 were 70% and below 1%, respectively.
In the case of `C=CC(=O)N1CCc2cc(Br)ccc21` [Compound 4], the inhibition at 25 µM was 10% on SUMO E1 (30 min preincubation) and below 1% at Atg7.
With `C=CC(=O)N1CCc2ncncc2C1` [Compound 5], the inhibition at 25 µM at SUMO E1 (30 min preincubation) was 10%; on Atg7, below 1%.
Take `C=CC(=O)N1CCc2cc(-c3ccccc3)ccc2C1` [Compound 6]: the inhibition at 25 µM on SUMO E1 (30 min preincubation) and on Atg7 was below 1% in each case.
Turning to `C=CC(=O)N1CCc2cc(Cc3ccccc3)ccc2C1` [Compound 7], the inhibition at 25 µM at SUMO E1 (30 min preincubation) was 20%; at Atg7, below 1%.
For the compound `C=CC(=O)N1CCc2cc(Nc3ccccc3)ccc2C1` [Compound 8], the inhibition at 25 µM at SUMO E1 (60 min preincubation) and on Atg7 was below 1% in each case.
With `C=CC(=O)N1Cc2ccc(Br)cc2C1` [Compound 9], the inhibition at 25 µM on SUMO E1 (60 min preincubation) and on Atg7 was below 1% throughout.
On to `C=CC(=O)N1CCC2CCCCC2C1` (stereo not shown) [Compound 12], for which the inhibition at 25 µM on SUMO E1 (60 min preincubation) and at Atg7 was below 1% in each case.
Turning to `C=CC(=O)N1Cc2ccccc2C1` [Compound 13], the inhibition at 25 µM on SUMO E1 (60 min preincubation) and at Atg7 was below 1% in each case.
Consider `C=CC(=O)N1Cc2ccc(N)cc2C1` [Compound 14], for which the inhibition at 25 µM at SUMO E1 (60 min preincubation) and at Atg7 was below 1% in each case.
For `C=CC(=O)N1Cc2ccc(NC(=O)c3ccc(F)cc3)cc2C1` [Compound 15], the inhibition at 25 µM at SUMO E1 (60 min preincubation) and on Atg7 was below 1% in each case.
On to `C=CC(=O)N1Cc2ccccc2[C@@H](c2ccccc2)C1` [Compound 28], for which the inhibition at 25 µM at SUMO E1 (60 min preincubation) is below 1%.
As to `CCOC(=O)/C=C/CN1Cc2ccccc2[C@@H](c2ccccc2)C1` [Compound 33], at SUMO E1 (60 min preincubation), the inhibition at 25 µM was below 1%.
As for `C=CC(=O)Oc1cccc([C@H]2CN(C(=O)C=C)Cc3ccccc32)c1` [Compound 44], the inhibition at 18 µM on SUMO E1 (18 uM compound, 30 min preincubation) was determined as 50%.
Turning to `C=CC(=O)Oc1cccc([C@H]2CN(C(C)=O)Cc3ccccc32)c1` [Compound 50], the inhibition at 10 µM at SUMO E1 (60 min preincubation) was determined as 50%.
`C=CC(=O)N1Cc2sc(C)cc2[C@@H](c2ccccc2)C1` [Compound 81]: on SUMO E1 (30 min preincubation), the inhibition at 10 µM amounted to 30%.
With `C=CC(=O)N1Cc2sc(Cl)cc2[C@@H](C2CCCCC2)C1` [Compound 124], at SUMO E1 (30 min preincubation), the inhibition at 1 µM was found to be 100%.
`C=CC(=O)N1Cc2sc(Cl)cc2[C@@H](C2CCCC2)C1` [Compound 125]: at SUMO E1 (30 min preincubation), the inhibition at 27 µM came out at 100%.
On to `C=CC(=O)N1Cc2sc(Cl)cc2[C@@H](Cc2ccccc2)C1` [Compound 126], for which the inhibition at 27 µM at SUMO E1 (20 min preincubation) was determined as 40%.
In the case of `Cc1ccccc1[C@H]1CN(C(=O)/C=C/CBr)Cc2sc(Cl)cc21` [Compound 131], the inhibition at 9 µM on SUMO E1 is below 1%.
As for `C=CC(=O)N1Cc2sc(Cl)cc2[C@@H](c2ccccc2CC)C1` [Compound 144], the inhibition at 27 µM at SUMO E1 (30 min preincubation) was 95%.
In the case of `C=CC(=O)N1Cc2sc(Cl)cc2[C@@H](c2cccc(C)c2C)C1` [Compound 149], the inhibition at 1 µM on SUMO E1 (30 min preincubation) was 90%.
For `C=CC(=O)N1Cc2sc(Cl)cc2[C@@H](c2ccccc2-c2ccccc2C(F)(F)F)C1` [Compound 156], the inhibition at 9 µM at SUMO E1 is below 1%.
With `C=CC(=O)N1Cc2sc(Cl)cc2[C@@H](c2ccccc2Br)C1` [Compound 158], the inhibition at 16 µM on SUMO E1 (16 uM compound, 45 min preincubation) is below 1%.

The record behind these values is patent US12398151B2, “Sumo inhibitor compounds and uses thereof” (SUVALENT THERAPEUTICS, INC., priority 2019, dated 2025).
